Data taken from patent US20110009343A1, “MODULATORS OF AMYLOID AGGREGATION” (Praecis Pharmaceuticals, Inc., priority 1995, published 2011).
Numbered stars: 1 amine (or outer) side, 2 acyl side, 3 side chain; on linkers, the order of the positions; unused ones are H or OH. Square brackets hold non-standard residues; d marks the D form. Peptide text beside a SMILES is read from it. * marks the point of attachment. Cholyl = C[C@H](CCC(=O)*)[C@H]1CC[C@H]2[C@@H]3[C@H](O)C[C@@H]4C[C@H](O)CC[C@]4(C)[C@H]3C[C@H](O)[C@]12C; X2 = O=C(C1(O)C[C@H](O)[C@@H](N[*:1])[C@H]([C@H](O)[C@H](O)CO)O1)[*:2]; X3 = N=C1N[C@H]2[C@H](CS[C@H]2CCCCC(=O)*)N1

Target: T1, Aβ1-40 (Homo sapiens, UniProt P05067)
T1 construct: (β-AP1-40) was obtained commercially from Bachem (Torrance, Calif.); purchased Bachem (Torrance, Calif.)
T1 sequence (P05067 672-711): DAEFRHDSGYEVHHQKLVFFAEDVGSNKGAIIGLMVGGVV
Assay: Nucleation assay (turbidity, A405 nm);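 also: synthetic Aβ monomer polymerization followed by turbidity in 96-well plates with continuous shaking, read every 15 minutes over 5 hours, compared against wells lacking test compound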
Assay type: biochemical
Settings: for inhibition at 100 mol %: 100 mole % inhibitor, read-out: % Inucl'n (percent reduction in maximum observed turbidity)

[1] = Table II, 100 mole % vs 50 μM Aβ1-40

Excerpt: The nucleation assay is employed to determine the ability of test compounds to alter (e.g. inhibit) the early events in formation of β-AP fibers from monomeric β-AP. […] The time delay before polymerization of β-AP monomer can be quantified as well as the extent of formation of insoluble fiber by light scattering (turbidity). Polymerization reaches equilibrium when the maximum turbidity reaches a plateau. The turbidity of a solution of natural β-AP in the absence or presence of various concentrations of a β-amyloid modulator compound is determined by measuring the apparent absorbance of the solution at 405 nm (A405 nm) over time. The threshold of sensitivity for the measurement of turbidity is in the range of 15-20 μM β-AP. […] This assay can be performed using stirring or shaking to accelerate polymerization, thereby increasing the speed of the assay. Moreover the assay can be adapted to a 96-well plate format to screen multiple compounds.
HFIP-solubilized peptide is sonicated in a waterbath sonicator for 5 mM at highest setting, then evaporated to dryness under a stream of argon. The peptide film is resuspended in anhydrous dimethylsulfoxide (DMSO) at a concentration of 6.9 mg/ml (25× concentration), sonicated for 5 mM as before, then filtered through a 0.2 micron nylon syringe filter (VWR cat. No. 28196-050). Test compounds are dissolved in DMSO at a 100× concentration. […] Ten microliters of the mixture is then added to the bottom of a well of a Corning Costar ultra low binding 96-well plate (Corning Costar, Cambridge Mass.; cat. No. 2500). Ninety microliters of water is added to the well, the plate is shaken on a rotary shaken at a constant speed at room temperature for 30 seconds, an additional 100 μl of 2×PTL buffer (20 mM NaH2PO4, 300 mM NaCl, pH 7.4) is added to the well, the plate is reshaken for 30 seconds and a baseline (t=0) turbidity reading is taken by measuring the apparent absorbance at 405 nm using a Bio-Rad Model 450 Microplate Reader. The plate is then returned to the shaker and shaken continuously for 5 hours. Turbidity readings are taken at 15 minute intervals.
β-amyloid aggregation in the absence of any modulators results in enhanced turbidity of the natural β-AP solution (i.e., an increase in the apparent absorbance at 405 nm over time).
Accordingly a fold increase in lag time of 1.0 indicates no change in lag time, whereas numbers >1.0 indicate an increase in lag time. The “% inhibition of plateau”, which is a measure of the ability of the compound to decrease the total amount of aggregation, refers to the reduction of the final turbidity in the presence of the test compound expressed as a percent of the control without the test compound.

SMILES | Fold Increase in Lag Time [1] | also measured
CC(=O)N[C@H]1[C@H]([C@H](O)[C@H](O)CO)OC(O)(C(=O)N[C@@H](Cc2c[nH]cn2)C(=O)N[C@@H](CC(=O)O)C(=O)N[C@@H](CO)C(=O)NCC(=O)N[C@@H](Cc2ccc(O)cc2)C(=O)N[C@@H](CCC(=O)O)C(=O)N[C@H](C(=O)N[C@@H](Cc2c[nH]cn2)C(=O)N[C@@H](Cc2c[nH]cn2)C(=O)N[C@@H](CCC(N)=O)C(=O)N[C@@H](CCCCN)C(=O)N[C@@H](CC(C)C)C(=O)N[C@H](C(=O)N[C@@H](Cc2ccccc2)C(=O)N[C@@H](Cc2ccccc2)C(=O)O)C(C)C)C(C)C)C[C@@H]1O (stereo partly drawn) [PPI-266] (Ac-[X2]HDSGYEVHHQKLVFF-OH) | 1.3 fold | 
CC(C)C[C@H](NC(=O)[C@H](CCCCN)NC(=O)[C@H](CCC(N)=O)NC(=O)[C@H](Cc1c[nH]cn1)NC(=O)[C@H](Cc1c[nH]cn1)NC(=O)[C@@H](NC(=O)[C@H](CCC(=O)O)NC(=O)[C@H](Cc1ccc(O)cc1)NC(=O)CNC(=O)[C@H](CO)NC(=O)[C@H](CC(=O)O)NC(=O)[C@H](Cc1c[nH]cn1)NC(=O)CCCC[C@@H]1SC[C@@H]2NC(=N)N[C@@H]21)C(C)C)C(=O)N[C@H](C(=O)N[C@@H](Cc1ccccc1)C(=O)N[C@@H](Cc1ccccc1)C(=O)O)C(C)C [PPI-267, iminobiotinyl-Aβ6-20] (X3-HDSGYEVHHQKLVFF-OH) | 1.6 fold | 
CC(C)C[C@H](NC(=O)[C@H](CCCCN)NC(=O)CC[C@@H](C)[C@H]1CC[C@H]2[C@@H]3[C@H](O)C[C@@H]4C[C@H](O)CC[C@]4(C)[C@H]3C[C@H](O)[C@]12C)C(=O)N[C@H](C(=O)N[C@@H](Cc1ccccc1)C(=O)N[C@@H](Cc1ccccc1)C(=O)N[C@@H](C)C(=O)N[C@@H](CCC(=O)O)C(=O)N[C@@H](CC(=O)O)C(=O)N[C@H](C(=O)NCC(=O)N[C@@H](CO)C(=O)N[C@@H](CC(N)=O)C(=O)N[C@@H](CCCCN)C(=O)NCC(=O)N[C@@H](C)C(=O)O)C(C)C)C(C)C [PPI-274] (Cholyl-KLVFFAEDVGSNKGA-OH) | >4.5 fold | 
CC(=O)N[C@H]1[C@H]([C@H](O)[C@H](O)CO)OC(O)(C(=O)N[C@@H](CCCCN)C(=O)N[C@@H](CC(C)C)C(=O)N[C@H](C(=O)N[C@@H](Cc2ccccc2)C(=O)N[C@@H](Cc2ccccc2)C(=O)N[C@@H](C)C(=O)N[C@@H](CCC(=O)O)C(=O)N[C@@H](CC(=O)O)C(=O)N[C@H](C(=O)NCC(=O)N[C@@H](CO)C(=O)N[C@@H](CC(N)=O)C(=O)N[C@@H](CCCCN)C(=O)NCC(=O)N[C@@H](C)C(=O)O)C(C)C)C(C)C)C[C@@H]1O (stereo partly drawn) [PPI-276] (Ac-[X2]KLVFFAEDVGSNKGA-OH) | ~1 fold | 
CC(C)C[C@H](NC(=O)[C@H](CCCCN)NC(=O)CCCC[C@@H]1SC[C@@H]2NC(=N)N[C@@H]21)C(=O)N[C@H](C(=O)N[C@@H](Cc1ccccc1)C(=O)N[C@@H](Cc1ccccc1)C(=O)N[C@@H](C)C(=O)N[C@@H](CCC(=O)O)C(=O)N[C@@H](CC(=O)O)C(=O)N[C@H](C(=O)NCC(=O)N[C@@H](CO)C(=O)N[C@@H](CC(N)=O)C(=O)N[C@@H](CCCCN)C(=O)NCC(=O)N[C@@H](C)C(=O)O)C(C)C)C(C)C [PPI-277] (X3-KLVFFAEDVGSNKGA-OH) | 1.2 fold | 
CC[C@H](C)[C@H](NC(=O)[C@H](C)NC(=O)CNC(=O)[C@H](CCCCN)NC(=O)[C@H](CC(N)=O)NC(=O)[C@H](CO)NC(=O)CNC(=O)[C@@H](NC(=O)[C@H](CC(=O)O)NC(=O)[C@H](CCC(=O)O)NC(=O)[C@H](C)NC(=O)CC[C@@H](C)[C@H]1CC[C@H]2[C@@H]3[C@H](O)C[C@@H]4C[C@H](O)CC[C@]4(C)[C@H]3C[C@H](O)[C@]12C)C(C)C)C(=O)N[C@H](C(=O)NCC(=O)N[C@@H](CC(C)C)C(=O)N[C@@H](CCSC)C(=O)O)[C@@H](C)CC [PPI-279] (Cholyl-AEDVGSNKGAIIGLM-OH) | 1.6 fold | 
CC[C@H](C)[C@H](NC(=O)[C@H](C)NC(=O)CNC(=O)[C@H](CCCCN)NC(=O)[C@H](CC(N)=O)NC(=O)[C@H](CO)NC(=O)CNC(=O)[C@@H](NC(=O)[C@H](CC(=O)O)NC(=O)[C@H](CCC(=O)O)NC(=O)[C@H](C)NC(=O)C1(O)C[C@H](O)[C@@H](NC(C)=O)[C@H]([C@H](O)[C@H](O)CO)O1)C(C)C)C(=O)N[C@H](C(=O)NCC(=O)N[C@@H](CC(C)C)C(=O)N[C@@H](CCSC)C(=O)O)[C@@H](C)CC (stereo partly drawn) [PPI-281] (Ac-[X2]AEDVGSNKGAIIGLM-OH) | ~1 fold | 
CC[C@H](C)[C@H](NC(=O)[C@H](C)NC(=O)CNC(=O)[C@H](CCCCN)NC(=O)[C@H](CC(N)=O)NC(=O)[C@H](CO)NC(=O)CNC(=O)[C@@H](NC(=O)[C@H](CC(=O)O)NC(=O)[C@H](CCC(=O)O)NC(=O)[C@H](C)NC(=O)CCCC[C@@H]1SC[C@@H]2NC(=N)N[C@@H]21)C(C)C)C(=O)N[C@H](C(=O)NCC(=O)N[C@@H](CC(C)C)C(=O)N[C@@H](CCSC)C(=O)O)[C@@H](C)CC [PPI-282] (X3-AEDVGSNKGAIIGLM-OH) | ~1 fold | 
CC[C@H](C)[C@H](NC(=O)[C@H](C)NC(=O)CNC(=O)[C@H](CCCCN)NC(=O)[C@H](CC(N)=O)NC(=O)[C@H](CO)NC(=O)CC[C@@H](C)[C@H]1CC[C@H]2[C@@H]3[C@H](O)C[C@@H]4C[C@H](O)CC[C@]4(C)[C@H]3C[C@H](O)[C@]12C)C(=O)N[C@H](C(=O)NCC(=O)N[C@@H](CC(C)C)C(=O)N[C@@H](CCSC)C(=O)N[C@H](C(=O)NCC(=O)NCC(=O)N[C@H](C(=O)N[C@H](C(=O)O)C(C)C)C(C)C)C(C)C)[C@@H](C)CC [PPI-284] (Cholyl-SNKGAIIGLMVGGVV-OH) | >4.5 fold | 
CC[C@H](C)[C@H](NC(=O)[C@H](C)NC(=O)CNC(=O)[C@H](CCCCN)NC(=O)[C@H](CC(N)=O)NC(=O)[C@H](CO)NC(=O)C1(O)C[C@H](O)[C@@H](NC(C)=O)[C@H]([C@H](O)[C@H](O)CO)O1)C(=O)N[C@H](C(=O)NCC(=O)N[C@@H](CC(C)C)C(=O)N[C@@H](CCSC)C(=O)N[C@H](C(=O)NCC(=O)NCC(=O)N[C@H](C(=O)N[C@H](C(=O)O)C(C)C)C(C)C)C(C)C)[C@@H](C)CC (stereo partly drawn) [PPI-286] (Ac-[X2]SNKGAIIGLMVGGVV-OH) | 1.3 fold | 
CC[C@H](C)[C@H](NC(=O)[C@H](C)NC(=O)CNC(=O)[C@H](CCCCN)NC(=O)[C@H](CC(N)=O)NC(=O)[C@H](CO)NC(=O)CCCC[C@@H]1SC[C@@H]2NC(=N)N[C@@H]21)C(=O)N[C@H](C(=O)NCC(=O)N[C@@H](CC(C)C)C(=O)N[C@@H](CCSC)C(=O)N[C@H](C(=O)NCC(=O)NCC(=O)N[C@H](C(=O)N[C@H](C(=O)O)C(C)C)C(C)C)C(C)C)[C@@H](C)CC [PPI-287] (X3-SNKGAIIGLMVGGVV-OH) | 2.3 fold | 
C[C@H](CCC(=O)O)[C@H]1CC[C@H]2[C@@H]3[C@H](O)C[C@@H]4C[C@H](O)CC[C@]4(C)[C@H]3C[C@H](O)[C@]12C [PPI-293, Cholic acid, reference compound] |  | inhibitory activity on Aβ aggregation: had no effect on Aβ aggregation; inhibition at 100 mol % (Table V): 0%
CC(C)C[C@H](NC(=O)[C@H](CCCCN)NC(=O)[C@H](CCC(N)=O)NC(=O)[C@H](Cc1c[nH]cn1)NC(=O)[C@H](Cc1c[nH]cn1)NC(=O)[C@@H](NC(=O)[C@H](CCC(=O)O)NC(=O)[C@H](Cc1ccc(O)cc1)NC(=O)CNC(=O)[C@H](CO)NC(=O)[C@H](CC(=O)O)NC(=O)[C@H](Cc1c[nH]cn1)NC(=O)CC[C@@H](C)[C@H]1CC[C@H]2[C@@H]3[C@H](O)C[C@@H]4C[C@H](O)CC[C@]4(C)[C@H]3C[C@H](O)[C@]12C)C(C)C)C(=O)N[C@H](C(=O)N[C@@H](Cc1ccccc1)C(=O)N[C@@H](Cc1ccccc1)C(N)=O)C(C)C [PPI-296] (Cholyl-HDSGYEVHHQKLVFF-NH2) |  | Fold Increase in Lag Time (Table III, 33 mole %): 1.8 fold
CC(C)C[C@H](NC(=O)[C@H](CCCCN)NC(=O)[C@H](CCC(N)=O)NC(=O)[C@H](Cc1c[nH]cn1)NC(=O)[C@H](Cc1c[nH]cn1)NC(=O)[C@@H](NC(=O)[C@H](CCC(=O)O)NC(=O)[C@H](Cc1ccc(O)cc1)NC(=O)CNC(=O)[C@H](CO)NC(=O)[C@H](CC(=O)O)NC(=O)[C@H](Cc1c[nH]cn1)NC(=O)CC[C@@H](C)[C@H]1CC[C@H]2[C@@H]3[C@H](O)C[C@@H]4C[C@H](O)CC[C@]4(C)[C@H]3C[C@H](O)[C@]12C)C(C)C)C(N)=O [PPI-325] (Cholyl-HDSGYEVHHQKL-NH2) |  | Fold Increase in Lag Time (Table III, 33 mole %): 1.8 fold
CC(C)[C@H](NC(=O)[C@H](CCC(=O)O)NC(=O)[C@H](Cc1ccc(O)cc1)NC(=O)CNC(=O)[C@H](CO)NC(=O)[C@H](CC(=O)O)NC(=O)[C@H](Cc1c[nH]cn1)NC(=O)CC[C@@H](C)[C@H]1CC[C@H]2[C@@H]3[C@H](O)C[C@@H]4C[C@H](O)CC[C@]4(C)[C@H]3C[C@H](O)[C@]12C)C(=O)N[C@@H](Cc1c[nH]cn1)C(=O)N[C@@H](Cc1c[nH]cn1)C(N)=O [PPI-331] (Cholyl-HDSGYEVHH-NH2) |  | Fold Increase in Lag Time (Table III, 33 mole %): 1.0 fold
C[C@H](CCC(=O)N[C@@H](Cc1c[nH]cn1)C(=O)N[C@@H](CC(=O)O)C(=O)N[C@@H](CO)C(=O)NCC(=O)N[C@@H](Cc1ccc(O)cc1)C(N)=O)[C@H]1CC[C@H]2[C@@H]3[C@H](O)C[C@@H]4C[C@H](O)CC[C@]4(C)[C@H]3C[C@H](O)[C@]12C [PPI-339] (Cholyl-HDSGY-NH2) |  | Fold Increase in Lag Time (Table III, 33 mole %): 1.1 fold; ΔLag (ratio of lag time with test compound to lag time of control) (Table V, 100 mole % inhibitor relative to Aβ1-40): 1.1; inhibition at 100 mol % (Table V): -18%
CC(C)C[C@H](NC(=O)[C@H](CCCCN)NC(=O)[C@H](CCC(N)=O)NC(=O)[C@H](Cc1c[nH]cn1)NC(=O)[C@H](Cc1c[nH]cn1)NC(=O)[C@@H](NC(=O)[C@H](CCC(=O)O)NC(=O)[C@H](Cc1ccc(O)cc1)NC(=O)CNC(=O)[C@H](CO)NC(=O)[C@H](CC(=O)O)NC(=O)CC[C@@H](C)[C@H]1CC[C@H]2[C@@H]3[C@H](O)C[C@@H]4C[C@H](O)CC[C@]4(C)[C@H]3C[C@H](O)[C@]12C)C(C)C)C(=O)N[C@H](C(=O)N[C@@H](Cc1ccccc1)C(=O)N[C@@H](Cc1ccccc1)C(=O)O)C(C)C [PPI-341, cholyl-Aβ7-20] (Cholyl-DSGYEVHHQKLVFF-OH) |  | Fold Increase in Lag Time (Table III, 33 mole %): 2 fold; Fold Increase in Lag Time (Table III, 100 mole %): >4.5 fold
